Results on 21 compounds are retold here after US8530493B2, “Indolopyridines as Eg5 kinesin modulators” (4SC AG, priority 2006, dated 2013).

Assay [1] relates to RKO p27 or p21 uninduced (proliferating) colon adenocarcinoma cells. Briefly: Alamar Blue cell viability assay, RKO p27 or p21 uninduced (proliferating). The class given is cell-based. The settings on record: Homo sapiens, RKOp27, 72 h, Table B2, anti-proliferative/cytotoxic activity, read-out: −log EC50 RKO p27 or p21 uninduced (proliferating) (converted). In outline:
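Viability read by Alamar Blue fluorescence (ex 544, em 590 nm), normalised to untreated wells, after 72 h, 37° C, 5% CO2 compound exposure in triplicate. Cells were uninduced (no Ponasterone A), proliferating RKO colon carcinoma p27 or p21 subclones in DMEM with 10% FCS; values are −log EC50 (mol/l).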
Background: The colour change of resazurin is a common sign of viable cells or microbes.

In assay [2] the test system is RKO p27 or p21 induced (arrested) colon adenocarcinoma cells. Briefly: Alamar Blue cell viability assay, RKO p27 or p21 induced (arrested). The assay is classed as cell-based. Particulars: Homo sapiens, RKOp27, Table B2, cells arrested by Ponasterone A, 72 hours, read-out: −log EC50 RKO p27 or p21 induced (arrested) (converted). In outline:
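RKOp21 or RKOp27 subclones in DMEM/10% FCS with 10 μM Ponasterone A to induce p21/p27 arrest, seeded 24 h before compound; triplicate 72 h exposure at 37 °C. Alamar Blue fluorescence (544/590 nm) as % of untreated (1% DMSO) cells; EC50 from dose-response curves, reported as −log EC50 (mol/l).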

Usually EC50 stands for the concentration at which the effect is half-maximal. `CC(=O)N1CCN(CCN2C(=O)N3[C@H](c4cccc(O)c4)c4[nH]c5ccc(Cl)cc5c4C[C@@]3(C)C2=O)CC1` (racemic) [Example 114, (3aSR,10RS)-2-[2-(4-Acetyl-piperazin-1-yl)-ethyl]-6-chloro-10-(3-hydroxy-phenyl)-3a-methyl-3a,4,9,10-tetrahydro-2,9,10a-triaza-cyclopenta[b]fluorene-1,3-dione]: the EC50 in assay [1] is at most 39.8 nM; in assay [2], at least 316 nM.

As for `COc1ccc2[nH]c3c(c2c1)C[C@@]1(C)C(=O)N(CCCN2CCCCC2)C(=O)N1[C@@H]3c1cccc(O)c1` (racemic) [Example 105, (3aSR,10RS)-10-(3-Hydroxy-phenyl)-6-methoxy-3a-methyl-2-(3-piperidin-1-yl-propyl)-3a,4,9,10-tetrahydro-2,9,10a-triaza-cyclopenta[b]fluorene-1,3-dione], the EC50 in assay [1] was at most 39.8 nM; in assay [2], at least 316 nM.

With `Cn1ccc(NCCN2C(=O)N3[C@H](c4cccc(O)c4)c4[nH]c5ccc(Cl)cc5c4C[C@@]3(C)C2=O)n1` (racemic) [Example 125, (3aSR,10RS)-6-Chloro-10-(3-hydroyx-phenyl)-3a-methyl-2-[2-(1-methyl-1H-pyrazol-3-ylamino)-ethyl]-3a,4,9,10-tetrahydro-2,9,10a-triaza-cyclopenta[b]fluorene-1,3-dione], the results for the EC50 in assay [1] and in assay [2] were 39.8 to 251 nM and at least 316 nM, respectively.

With `CCN(CCCN1C(=O)N2[C@H](c3cccc(O)c3)c3[nH]c4ccc(OC)cc4c3C[C@@]2(C)C1=O)CCOC` (racemic) [Example 90, (3aSR,10RS)-2-{3-[Ethyl-(2-methoxy-ethyl)-amino]-propyl}-10-(3-hydroxy-phenyl)-6-methoxy-3a-methyl-3a,4,9,10-tetrahydro-2,9,10a-triaza-cyclopenta[b]fluorene-1,3-dione], the EC50 in assay [1] was at most 39.8 nM; in assay [2], at least 3160 nM.

On to `COc1ccc2[nH]c3c(c2c1)C[C@@]1(C)C(=O)N(CCNCC(F)F)C(=O)N1[C@@H]3c1cccc(O)c1` (racemic) [Example 73, (3aSR,10RS)-2-[2-(2,2-Difluoro-ethylamino)-ethyl]-10-(3-hydroxy-phenyl)-6-methoxy-3a-methyl-3a,4,9,10-tetrahydro-2,9,10a-triaza-cyclopenta[b]fluorene-1,3-dione], for which the EC50 was 39.8 to 251 nM in assay [1] and at least 3160 nM in assay [2].

For `C#CCN(C)CCCN1C(=O)N2[C@H](c3cccc(O)c3)c3[nH]c4ccc(OC)cc4c3C[C@@]2(C)C1=O` (racemic) [Example 144], the results for the EC50 in assay [1] and in assay [2] were 39.8 to 251 nM and at least 316 nM, respectively.

In the case of `C[C@@]12Cc3c([nH]c4ccc(Cl)cc34)[C@@H](c3cccc(O)c3)N1C(=O)N(CCNCC(F)F)C2=O` (racemic) [Example 123, (3aSR,10RS)-6-Chloro-2-[2-(2,2-difluoro-ethylamino)-ethyl]-10-(3-hydroxy-phenyl)-3a-methyl-3a,4,9,10-tetrahydro-2,9,10a-triaza-cyclopenta[b]fluorene-1,3-dione], the results for the EC50 in assay [1] and in assay [2] were 39.8 to 251 nM and at least 316 nM, respectively.

`C#CCNCCCN1C(=O)N2[C@H](c3cccc(O)c3)c3[nH]c4ccc(OC)cc4c3C[C@@]2(C)C1=O` (racemic) [Example 147, (3aSR,10RS)-10-(3-Hydroxy-phenyl)-6-methoxy-3a-methyl-2-(3-prop-2-ynylamino-propyl)-3a,4,9,10-tetrahydro-2,9,10a-triaza-cyclopenta[b]fluorene-1,3-dione]: the EC50 in assay [1] is at most 39.8 nM; in assay [2], at least 316 nM.

Take `COCCNCCN1C(=O)N2[C@H](c3cccc(O)c3)c3[nH]c4ccc(OC)cc4c3C[C@@]2(C)C1=O` (racemic) [Example 83, (3aSR,10RS)-10-(3-Hydroxy-phenyl)-6-methoxy-2-[2-(2-methoxy-ethylamino)-ethyl]-3a-methyl-3a,4,9,10-tetrahydro-2,9,10a-triaza-cyclopenta[b]fluorene-1,3-dione]: the EC50 in assay [1] is at most 39.8 nM; in assay [2], at least 3160 nM.

As to `COc1ccc2[nH]c3c(c2c1)C[C@@]1(C)C(=O)N(CCCNC2CCC2)C(=O)N1[C@@H]3c1cccc(O)c1` (racemic) [Example 86, (3aSR,10RS)-2-(3-Cyclobutylamino-propyl)-10-(3-hydroxy-phenyl)-6-methoxy-3a-methyl-3a,4,9,10-tetrahydro-2,9,10a-triaza-cyclopenta[b]fluorene-1,3-dione], the EC50 in assay [1] was at most 39.8 nM; in assay [2] it was at least 3160 nM.

`COc1ccc2[nH]c3c(c2c1)C[C@@]1(C)C(=O)N(CCCN(C)CCO)C(=O)N1[C@@H]3c1cccc(O)c1` (racemic) [Example 143, (3aSR,10RS)-2-{3[(2-Hydroxy-ethyl)-methyl-amino]-propyl}-10-(3-hydroxy-phenyl)-6-methoxy-3a-methyl-3a,4,9,10-tetrahydro-2,9,10a-triaza-cyclopenta[b]fluorene-1,3-dione]: the EC50 in assay [1] is at most 39.8 nM; in assay [2] it was at least 316 nM.

As to `CCN(CC)CCN1C(=O)N2[C@H](c3cccc(O)c3)c3[nH]c4ccc(OC)cc4c3C[C@@]2(C)C1=O` (racemic) [Example 69, (3aSR,10RS)-2-(2-Diethylamino-ethyl)-10-(3-hydroxy-phenyl)-6-methoxy-3a-methyl-3a,4,9,10-tetrahydro-2,9,10a-triaza-cyclopenta[b]fluorene-1,3-dione], the figures for the 50% effective concentration (EC50) in assay [1] and in assay [2] were at most 39.8 nM and at least 3160 nM, respectively.

In the case of `COc1ccc2[nH]c3c(c2c1)C[C@@]1(C)C(=O)N(CCCCl)C(=O)N1[C@@H]3c1cccc(O)c1` (racemic) [Example 55, (3aSR,10RS)-2-(3-Chloro-propyl)-10-(3-hydroxy-phenyl)-6-methoxy-3a-methyl-3a,4,9,10-tetrahydro-2,9,10a-triaza-cyclopenta[b]fluorene-1,3-dione], the EC50 in assay [1] was 39.8 to 251 nM; in assay [2] it was at least 316 nM.

Turning to `COc1ccc2[nH]c3c(c2c1)C[C@@]1(C)C(=O)N(CCN(C)CCO)C(=O)N1[C@@H]3c1cccc(O)c1` (racemic) [Example 118, (3aSR,10RS)-2-{2-[(2-Hydroxy-ethyl)-methyl-amino]-ethyl}-10-(3-hydroxy-phenyl)-6-methoxy-3a-methyl-3a,4,9,10-tetrahydro-2,9,10a-triaza-cyclopenta[b]fluorene-1,3-dione], the EC50 is at most 39.8 nM in assay [1] and at least 316 nM in assay [2].

As for `COc1ccc2[nH]c3c(c2c1)C[C@@]1(C)C(=O)N(CCN2CCCCCC2)C(=O)N1[C@@H]3c1cccc(O)c1` (racemic) [Example 74, (3aSR,10RS)-2-(2-Azepan-1-yl-ethyl)-10-(3-hydroxy-phenyl)-6-methoxy-3a-methyl-3a,4,9,10-tetrahydro-2,9,10a-triaza-cyclopenta[b]fluorene-1,3-dione], the EC50 was at most 39.8 nM in assay [1] and at least 3160 nM in assay [2].

In the case of `C[C@@]12Cc3c([nH]c4ccc(Cl)cc34)[C@@H](c3cccc(O)c3)N1C(=O)N(CCN1CCC(F)(F)C1)C2=O` (racemic) [Example 129, (3aSR,10RS)-6-Chloro-2-[2-(3,3-difluoro-pyrrolidin-1-yl)-ethyl]-10-(3-hydroxy-phenyl)-3a-methyl-3a,4,9,10-tetrahydro-2,9,10a-triaza-cyclopenta[b]fluorene-1,3-dione], the EC50 in assay [1] is 39.8 to 251 nM; in assay [2], at least 316 nM.

For `CN(CCO)CCCN1C(=O)N2[C@H](c3cccc(O)c3)c3[nH]c4ccc(Cl)cc4c3C[C@@]2(C)C1=O` (racemic) [Example 132, (3aSR,10RS)-6-Chloro-2-{3-[(2-hydroxy-ethyl)-methyl-amino]-propyl}-10-(3-hydroxy-phenyl)-3a-methyl-3a,4,9,10-tetrahydro-2,9,10a-triaza-cyclopenta[b]fluorene-1,3-dione], the EC50 in assay [1] is at most 39.8 nM; in assay [2], at least 316 nM.

With `C#CCN(C)CCN1C(=O)N2[C@H](c3cccc(O)c3)c3[nH]c4ccc(Cl)cc4c3C[C@@]2(C)C1=O` (racemic) [Example 116, (3aSR,10RS)-6-Chloro-10-(3-hydroxy-phenyl)-3a-methyl-2-[2-(methyl-prop-2-ynyl-amino)-ethyl]-3a,4,9,10-tetrahydro-2,9,10a-triaza-cyclopenta[b]fluorene-1,3-dione], the EC50 was 39.8 to 251 nM in assay [1] and at least 316 nM in assay [2].

In the case of `C#CC(C)NCCCN1C(=O)N2[C@H](c3cccc(O)c3)c3[nH]c4ccc(Cl)cc4c3C[C@@]2(C)C1=O` (mixture of isomers) [Example 136, (3aSR,10RS)-6-Chloro-10-(3-hydroxy-phenyl)-3a-methyl-2-[3-((R and S)1-methyl-prop-2-ynylamino)-propyl]-3a,4,9,10-tetrahydro-2,9,10a-triaza-cyclopenta[b]fluorene-1,3-dione], the 50% effective concentration (EC50) is at most 39.8 nM in assay [1] and at least 3160 nM in assay [2].

Turning to `CCN(CC)CCN1C(=O)N2[C@H](c3cccc(O)c3)c3[nH]c4ccc(Cl)cc4c3C[C@@]2(C)C1=O` (racemic) [Example 110, (3aSR,10RS)-6-Chloro-2-(2-diethylamino-ethyl)-10-(3-hydroxy-phenyl)-3a-methyl-3a,4,9,10-tetrahydro-2,9,10a-triaza-cyclopenta[b]fluorene-1,3-dione], the EC50 in assay [1] was at most 39.8 nM; in assay [2], at least 316 nM.

On to `COc1ccc2[nH]c3c(c2c1)C[C@@]1(C)C(=O)N(CCCNCCO)C(=O)N1[C@@H]3c1cccc(O)c1` (racemic) [Example 145, (3aSR,10RS)-2-[3-(2-Hydroxy-ethylamino)-propyl]-10-(3-hydroxy-phenyl)-6-methoxy-3a-methyl-3a,4,9,10-tetrahydro-2,9,10a-triaza-cyclopenta[b]fluorene-1,3-dione], for which the EC50 is at most 39.8 nM in assay [1] and at least 316 nM in assay [2].
